{
  "source": "paper PMC8523698",
  "about": "“Preclinical characterization of an intravenous coronavirus 3CL protease inhibitor for the potential treatment of COVID19” (Nature Communications, 2021)",
  "molecular_target": "CYP2D6 (Homo sapiens, UniProt P10635)",
  "sequence (P10635 whole entry)": "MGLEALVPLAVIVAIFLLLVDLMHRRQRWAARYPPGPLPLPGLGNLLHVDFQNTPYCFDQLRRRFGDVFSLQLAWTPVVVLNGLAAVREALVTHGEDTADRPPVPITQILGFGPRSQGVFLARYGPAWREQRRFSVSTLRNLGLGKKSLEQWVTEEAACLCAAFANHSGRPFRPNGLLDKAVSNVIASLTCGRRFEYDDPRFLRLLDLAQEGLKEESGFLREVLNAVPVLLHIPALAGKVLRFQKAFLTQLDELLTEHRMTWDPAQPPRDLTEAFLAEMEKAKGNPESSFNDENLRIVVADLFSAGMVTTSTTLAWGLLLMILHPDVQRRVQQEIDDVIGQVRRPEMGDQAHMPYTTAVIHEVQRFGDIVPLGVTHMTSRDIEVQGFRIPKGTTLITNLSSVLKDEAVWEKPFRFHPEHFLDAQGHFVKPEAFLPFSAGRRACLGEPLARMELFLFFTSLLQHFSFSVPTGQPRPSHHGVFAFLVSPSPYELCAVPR",
  "test": "Reversible CYP inhibition in human liver microsomes",
  "note": "Where “and” joins values, the source holds several entries; their conditions need not be identical. Equal entries are not always repeated.",
  "data": [
    {"smiles": "COc1cccc2[nH]c(C(=O)N[C@@H](CC(C)C)C(=O)N[C@@H](C[C@@H]3CCNC3=O)C(=O)CO)cc12", "note": "[PF-00835231]", "values": [
      {"measurement": "Percent of Control Activity", "setting": "CYP 2D6, 0.1 µM, 30-Minute Preincubation, 0.1 µM", "result": "92.9% and 101.4%"},
      {"measurement": "Percent of Control Activity", "setting": "CYP 2D6, 0.1 µM, Zero-Minute Preincubation, 0.1 µM", "result": "87.8% and 108.7%"},
      {"measurement": "Percent of Control Activity", "setting": "CYP 2D6, 0.214 µM, 30-Minute Preincubation, 0.214 µM", "result": 106.1, "unit": "%"},
      {"measurement": "Percent of Control Activity", "setting": "CYP 2D6, 0.214 µM, Zero-Minute Preincubation, 0.214 µM", "result": "101.0% and 100.2%"},
      {"measurement": "Percent of Control Activity", "setting": "CYP 2D6, 0.979 µM, 30-Minute Preincubation, 0.979 µM", "result": "107.3% and 99.0%"},
      {"measurement": "Percent of Control Activity", "setting": "CYP 2D6, 0.979 µM, Zero-Minute Preincubation, 0.979 µM", "result": "96.4% and 103.2%"},
      {"measurement": "Percent of Control Activity", "setting": "CYP 2D6, 2.09 µM, 30-Minute Preincubation, 2.09 µM", "result": "102.6% and 103.8%"},
      {"measurement": "Percent of Control Activity", "setting": "CYP 2D6, 2.09 µM, Zero-Minute Preincubation, 2.09 µM", "result": "96.1% and 107.2%"},
      {"measurement": "Percent of Control Activity", "setting": "CYP 2D6, 4.48 µM, 30-Minute Preincubation, 4.48 µM", "result": "102.2% and 99.7%"},
      {"measurement": "Percent of Control Activity", "setting": "CYP 2D6, 4.48 µM, Zero-Minute Preincubation, 4.48 µM", "result": "105.0% and 106.1%"},
      {"measurement": "Percent of Control Activity", "setting": "CYP 2D6, 20.5 µM, 30-Minute Preincubation, 20.5 µM", "result": "113.8% and 117.9%"},
      {"measurement": "Percent of Control Activity", "setting": "CYP 2D6, 20.5 µM, Zero-Minute Preincubation, 20.5 µM", "result": 108.8, "unit": "%"},
      {"measurement": "Percent of Control Activity", "setting": "CYP 2D6, 43.8 µM, 30-Minute Preincubation, 43.8 µM", "result": "122.8% and 114.4%"},
      {"measurement": "Percent of Control Activity", "setting": "CYP 2D6, 43.8 µM, Zero-Minute Preincubation, 43.8 µM", "result": "99.1% and 109.2%"},
      {"measurement": "Percent of Control Activity", "setting": "CYP 2D6, 93.5 µM, 30-Minute Preincubation, 93.5 µM", "result": "122.0% and 119.6%"},
      {"measurement": "Percent of Control Activity", "setting": "CYP 2D6, 93.5 µM, Zero-Minute Preincubation, 93.5 µM", "result": 100.2, "unit": "%"},
      {"measurement": "Percent of Control Activity", "setting": "CYP 2D6, 200 µM, 30-Minute Preincubation, 200 µM", "result": "102.0% and 91.1%"},
      {"measurement": "Percent of Control Activity", "setting": "CYP 2D6, 200 µM, Zero-Minute Preincubation, 200 µM", "result": "73.5% and 82.2%"},
      {"measurement": "IC50", "setting": "human, microsomes, pH 7.4", "result": "> 200", "unit": "µM"},
      {"measurement": "activity at 0.1 µM", "setting": "human, microsomes, pH 7.4, Percent of Control Activity, CYP 2D6, 0.1 µM, 30-Minute Preincubation", "result": 103, "unit": "%"},
      {"measurement": "activity at 0.214 µM", "setting": "human, microsomes, pH 7.4, Percent of Control Activity, CYP 2D6, 0.214 µM, 30-Minute Preincubation", "result": 102, "unit": "%"},
      {"measurement": "activity at 0.214 µM", "setting": "human, microsomes, pH 7.4, Percent of Control Activity, CYP 2D6, 0.214 µM, Zero-Minute Preincubation", "result": 98.6, "unit": "%"},
      {"measurement": "activity at 0.979 µM", "setting": "human, microsomes, pH 7.4, Percent of Control Activity, CYP 2D6, 0.979 µM, 30-Minute Preincubation", "result": 104, "unit": "%"},
      {"measurement": "activity at 0.979 µM", "setting": "human, microsomes, pH 7.4, Percent of Control Activity, CYP 2D6, 0.979 µM, Zero-Minute Preincubation", "result": 97.7, "unit": "%"},
      {"measurement": "activity at 2.09 µM", "setting": "human, microsomes, pH 7.4, Percent of Control Activity, CYP 2D6, 2.09 µM, 30-Minute Preincubation", "result": 104, "unit": "%"},
      {"measurement": "activity at 2.09 µM", "setting": "human, microsomes, pH 7.4, Percent of Control Activity, CYP 2D6, 2.09 µM, Zero-Minute Preincubation", "result": 99.9, "unit": "%"},
      {"measurement": "activity at 4.48 µM", "setting": "human, microsomes, pH 7.4, Percent of Control Activity, CYP 2D6, 4.48 µM, 30-Minute Preincubation", "result": 109, "unit": "%"},
      {"measurement": "activity at 4.48 µM", "setting": "human, microsomes, pH 7.4, Percent of Control Activity, CYP 2D6, 4.48 µM, Zero-Minute Preincubation", "result": 97.2, "unit": "%"},
      {"measurement": "activity at 20.5 µM", "setting": "human, microsomes, pH 7.4, Percent of Control Activity, CYP 2D6, 20.5 µM, 30-Minute Preincubation", "result": 118, "unit": "%"},
      {"measurement": "activity at 20.5 µM", "setting": "human, microsomes, pH 7.4, Percent of Control Activity, CYP 2D6, 20.5 µM, Zero-Minute Preincubation", "result": 97.6, "unit": "%"},
      {"measurement": "activity at 43.8 µM", "setting": "human, microsomes, pH 7.4, Percent of Control Activity, CYP 2D6, 43.8 µM, 30-Minute Preincubation", "result": 119, "unit": "%"},
      {"measurement": "activity at 43.8 µM", "setting": "human, microsomes, pH 7.4, Percent of Control Activity, CYP 2D6, 43.8 µM, Zero-Minute Preincubation", "result": 101, "unit": "%"},
      {"measurement": "activity at 93.5 µM", "setting": "human, microsomes, pH 7.4, Percent of Control Activity, CYP 2D6, 93.5 µM, 30-Minute Preincubation", "result": 120, "unit": "%"},
      {"measurement": "activity at 93.5 µM", "setting": "human, microsomes, pH 7.4, Percent of Control Activity, CYP 2D6, 93.5 µM, Zero-Minute Preincubation", "result": 91.9, "unit": "%"},
      {"measurement": "activity at 200 µM", "setting": "human, microsomes, pH 7.4, Percent of Control Activity, CYP 2D6, 200 µM, 30-Minute Preincubation", "result": 95.7, "unit": "%"},
      {"measurement": "activity at 200 µM", "setting": "human, microsomes, pH 7.4, Percent of Control Activity, CYP 2D6, 200 µM, Zero-Minute Preincubation", "result": 78.8, "unit": "%"}
    ]}
  ]
}
